Measured values as given in US20250179437A1, “L[…] FOR PRODUCING PRIMITIVE STREAK CELLS” (UNIVERSITY HEALTH NETWORK, priority 2023, published 2025).

Key:
Assay type in all cases: cell-based, human
H1 hPSC line [1] = assay: Differentiation of hPSCs into primitive streak and definitive endoderm with or without Latrunculin A (flow cytometry)
Excerpt: Human pluripotent stem cell (hPSC) lines: For protocol optimization, the H1 hPSC line^1, purchased from WiCell Research Institute (Madison, USA) was employed. This work has received approval from the Stem Cell Oversight Committee (SCOC) as the focus of a Canadian Institutes of Health Research (CIHR) Canada Graduate Scholarship-Doctoral (CGS-D) award.
hPSC expansion and passage: Cells were cryopreserved in a media composed of 50% IMDM (Life Technologies #12440) or StemMACS iPS-brew XF (Miltenyi Biotec #130-104-368), 40% Fetal Bovine Serum (FBS, Gibco #12483-020), and 10% DMSO (Millipore Sigma #D2650). Cryopreserved hPSCs were thawed in DMEM:F12 (Wisent #319-085-CL) at a ratio of 1 mL cells: 9 mL media, centrifuged at 1000 revolutions per minute (RPM) for 5 minutes, and resuspended in StemMACS iPS-brew XF with 10 μM ROCK1/2 inhibitor (Y-27652, Tocris Biosciences #1254). Cells were maintained in monolayer culture in StemMACS iPS-brew XF media with daily media changes. Upon reaching full confluency, cells were passaged by single cell dissociation using TrypLE (Life Technologies #12605) with 1% DNase 1 mg/mL (Calbiochem 260913), centrifuged for 5 min at 1000 RPM, and resuspended in StemMACS iPS-brew XF with 10 μM ROCK1/2 inhibitor (Y-27652, Tocris Biosciences #1254). Cells were split at a cell line-specific ratio to ensure confluency within 2-3 days, upon which differentiation was initiated.
hPSC differentiation: On day 0, confluent cultures of hPSCs in monolayer format were washed with Calcium- and Magnesium-free dPBS (Corning #20-031-CV) and fed with media with or without Latrunculin A to generate primitive streak (day 1) and definitive endoderm (day 3). The media used at day 0, 1, and 2 are specified in the tables below (Tables 1.1-1.2). When reagents were obtained from suppliers as liquids, the concentration is provided as a percentage of reagent volume/base media volume. When reagents were provided as desiccated powders that required reconstitution, the concentration is specified in either mass or molarity per unit volume of fully reconstituted media. All media were supplemented with 1% vol/vol Gibco Penicillin-Streptomycin (ThermoFisher Scientific #15070063). […]
Dissociated cells in suspension culture were filtered through a 35 micrometer cell strainer, centrifuged, and the supernatant was discarded. […] Cells were analyzed on a BD LSRFortessa flow cytometer. […] Experimental data was analyzed using FlowJo Software (BD).
Cell-surface flow cytometry of hPSC-derived cells: Dissociated cells were directly incubated with directly conjugated primary antibodies (table 1.3) in staining buffer for 20 minutes at room temperature. Cells were then washed once, and resuspended in staining buffer containing 1:100,000 DAPI (Biotium #40043) and directly analyzed by flow cytometry. […]

H1 hPSC line [2] = assay: Differentiation of hPSC-derived definitive endoderm to pancreatic progenitors and beta-like cells (flow cytometry)
Excerpt: (§1) hPSC differentiation: On day 0, confluent cultures of hPSCs in monolayer format were washed with Calcium- and Magnesium-free dPBS (Corning #20-031-CV) and fed with media with or without Latrunculin A to generate primitive streak (day 1) and definitive endoderm (day 3). The media used at day 0, 1, and 2 are specified in the tables below (Tables 1.1-1.2). When reagents were obtained from suppliers as liquids, the concentration is provided as a percentage of reagent volume/base media volume. When reagents were provided as desiccated powders that required reconstitution, the concentration is specified in either mass or molarity per unit volume of fully reconstituted media. All media were supplemented with 1% vol/vol Gibco Penicillin-Streptomycin (ThermoFisher Scientific #15070063).
(§2) Following definitive endoderm formation, cells were treated with differentiation media to generate either pancreatic or lung cells.
In an embodiment, the method comprises steps for differentiate the endodermal cell population to pancreatic cells. For example, as described herein differentiation from a an endodermal cell at day 3 differentiation to pancreatic lineages involves a series of steps that will differentiate cells to pancreatic progenitors cells at day 12-13 as described by Nostro et al 2015^2 or Yung and Poon 2019^3 and endocrine cells from day 20 onwards as described by Rezania et al 20144, Pagliuca et al., 2014^5, Hogrebe et al. 2020^6 or Balboa et al., 2022^7, where typically stage 1 is known to generate definitive endoderm, stage 4 is known to generate pancreatic progenitors and stage 6 is known to generate islet-like cells. Stage 2 can span for example 2 to 3 days and stage 3 can span for example 1 to 4 days. Stage 2 for example can include contacting the population to be differentiated (e.g. the Stage 1 endoderm cells) with Fibroblast Growth Factor 10 (FGF10), optionally wingless-type MMTV integration site family member 3A (Wnt3a), optionally Retinoic acid (RA), optionally Activin A, and optionally Dorsomorphin to produce Stage 2 differentiated cells. […]

H1 hPSC line [3] = assay: Differentiation of hPSC-derived definitive endoderm to NKX2-1+ lung progenitors (flow cytometry, immunofluorescence); conditions: vs definitive endoderm generated in the absence of LatA
Excerpt: as §1, §2
In an embodiment, the method comprises steps for differentiate the endodermal cell population to lung cells. […]
Dissociated cells in suspension culture were filtered through a 35 micrometer cell strainer, centrifuged, and the supernatant was discarded. […] Cells were analyzed on a BD LSRFortessa flow cytometer. […] Experimental data was analyzed using FlowJo Software (BD). […]

[4] = day 13, vs control without LatA

C/C1=C/C(=O)O[C@@H]2C[C@@H](CC[C@H](C)/C=C\C=C\CC1)O[C@@](O)([C@@H]1CSC(=O)N1)C2 [Latrunculin A]
efficiency of primitive streak cell generation (H1 hPSC line [1]; Latrunculin A-treated hPSCs): high efficiencies
BRA+ primitive streak cells generated (H1 hPSC line [1]; high-density hPSCs, MEF-free, LatA at day 0, 24 hours after starting differentiation): nearly pure populations
frequency of FOXA2+SOX17+ definitive endoderm (DE)-like cells (H1 hPSC line [1]; high-density hPSCs, day 3 of differentiation, vs control without LatA): significantly higher frequencies
impairment of high-density cells in their ability to generate BRA+ cells (H1 hPSC line [1]; high-density vs low-density hPSCs, LatA treatment at day 0): completely abrogated
PDX1−NKX6-1− cells (H1 hPSC line [2]; [4]): greatly reduced
frequency of PDX1+NKX6.1+ hPSC-derived pancreatic progenitors (H1 hPSC line [2]; [4]): greater frequency
frequency of NKX6-1+CPEP+ beta-like cells (H1 hPSC line [2]; day 23 of differentiation, vs control protocol): greater frequency
frequency of NKX2-1+ lung progenitors (H1 hPSC line [3]): much higher frequencies
